Activity calls are given as the source filed them. The calls are words filed in the database; no cut-off is given here.
Key:
[1] = target: T1, 5-hydroxytryptamine receptor 2C (Homo sapiens, UniProt P28335); assay: Inhibition of 5HT2C (unknown origin)
T1 sequence (P28335 whole entry): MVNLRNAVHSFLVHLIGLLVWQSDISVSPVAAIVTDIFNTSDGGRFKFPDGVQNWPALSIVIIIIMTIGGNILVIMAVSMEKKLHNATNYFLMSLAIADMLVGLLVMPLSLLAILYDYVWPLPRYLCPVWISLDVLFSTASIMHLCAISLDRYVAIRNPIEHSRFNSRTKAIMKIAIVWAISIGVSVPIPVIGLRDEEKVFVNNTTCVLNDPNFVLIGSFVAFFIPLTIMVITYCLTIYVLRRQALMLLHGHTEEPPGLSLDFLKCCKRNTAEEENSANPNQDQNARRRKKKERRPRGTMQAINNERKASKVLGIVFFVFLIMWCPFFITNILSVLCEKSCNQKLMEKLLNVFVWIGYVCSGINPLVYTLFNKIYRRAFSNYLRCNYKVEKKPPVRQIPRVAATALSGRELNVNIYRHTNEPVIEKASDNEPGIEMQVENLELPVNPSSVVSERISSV

[2] = target: Sigma intracellular receptor 2 (Homo sapiens, UniProt Q5BJF2); assay: Inhibition of sigma receptor 2 (unknown origin)
Sequence of Sigma intracellular receptor 2 (Q5BJF2 whole entry): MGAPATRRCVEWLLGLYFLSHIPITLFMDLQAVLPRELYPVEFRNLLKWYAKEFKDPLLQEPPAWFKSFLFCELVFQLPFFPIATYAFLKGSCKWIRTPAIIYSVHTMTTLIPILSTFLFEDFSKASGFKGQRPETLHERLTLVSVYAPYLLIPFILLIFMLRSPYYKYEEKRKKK

[3] = target: Sigma non-opioid intracellular receptor 1 (Homo sapiens, UniProt Q99720); assay: Inhibition of sigma receptor 1 (unknown origin)
Sequence of Sigma non-opioid intracellular receptor 1 (Q99720 whole entry): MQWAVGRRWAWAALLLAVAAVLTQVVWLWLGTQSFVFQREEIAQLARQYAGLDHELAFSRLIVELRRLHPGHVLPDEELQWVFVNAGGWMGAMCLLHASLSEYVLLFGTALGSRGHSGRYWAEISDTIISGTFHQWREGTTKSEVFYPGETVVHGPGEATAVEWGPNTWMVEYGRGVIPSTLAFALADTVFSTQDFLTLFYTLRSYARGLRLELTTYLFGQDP

[4] = target: T2, Adenosine receptor A2a (Homo sapiens, UniProt P29274); assay: Displacement of [3H]2-[p-(2-carboxyethyl)phenylethylamino]-5-N-ethylcarboxamidoadenosine from human A2A adenosine receptor expressed in HEK293 cell membranes at 10 uM after 60 mins by scintillation proximity assay relative to adenosine 5-N-ethyluronamide
T2 sequence (P29274 whole entry): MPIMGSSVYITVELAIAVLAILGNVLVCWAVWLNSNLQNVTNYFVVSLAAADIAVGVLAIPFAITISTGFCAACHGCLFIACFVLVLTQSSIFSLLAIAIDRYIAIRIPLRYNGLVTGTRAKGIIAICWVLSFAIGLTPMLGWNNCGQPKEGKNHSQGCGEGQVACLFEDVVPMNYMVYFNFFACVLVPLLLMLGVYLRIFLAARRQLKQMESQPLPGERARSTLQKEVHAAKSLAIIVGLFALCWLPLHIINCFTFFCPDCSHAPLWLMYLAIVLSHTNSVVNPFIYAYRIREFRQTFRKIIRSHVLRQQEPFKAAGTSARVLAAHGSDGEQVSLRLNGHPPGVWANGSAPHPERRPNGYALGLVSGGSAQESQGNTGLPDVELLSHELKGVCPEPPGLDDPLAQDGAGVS

[5] = target: T3, Adenosine receptor A3 (Homo sapiens) (UniProt P0DMS8); assay: Displacement of [125I]N6-(4-amino-3-iodobenzyl)adenosine-5-N-methyluronamide from human A3A adenosine receptor expressed in CHO cell membranes at 10 uM after 60 mins by scintillation proximity assay relative to adenosine 5-N-ethyluronamide
T3 sequence (whole entry): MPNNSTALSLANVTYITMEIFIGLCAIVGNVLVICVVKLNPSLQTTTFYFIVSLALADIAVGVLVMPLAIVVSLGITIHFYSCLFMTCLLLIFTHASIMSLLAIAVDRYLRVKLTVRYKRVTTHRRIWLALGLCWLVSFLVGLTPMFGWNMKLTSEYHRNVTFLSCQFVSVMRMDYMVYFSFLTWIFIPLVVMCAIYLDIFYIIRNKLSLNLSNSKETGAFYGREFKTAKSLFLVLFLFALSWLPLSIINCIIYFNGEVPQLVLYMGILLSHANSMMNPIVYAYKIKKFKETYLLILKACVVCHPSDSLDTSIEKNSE

[6] = target: T4, Adenosine receptor A3 (Mus musculus) (UniProt Q61618); assay: Displacement of [125I]N6-(4-amino-3-iodobenzyl)adenosine-5-N-methyluronamide from mouse A3A adenosine receptor expressed in CHO cell membranes at 10 uM after 60 mins by scintillation proximity assay relative to adenosine 5-N-ethyluronamide
T4 sequence (whole entry): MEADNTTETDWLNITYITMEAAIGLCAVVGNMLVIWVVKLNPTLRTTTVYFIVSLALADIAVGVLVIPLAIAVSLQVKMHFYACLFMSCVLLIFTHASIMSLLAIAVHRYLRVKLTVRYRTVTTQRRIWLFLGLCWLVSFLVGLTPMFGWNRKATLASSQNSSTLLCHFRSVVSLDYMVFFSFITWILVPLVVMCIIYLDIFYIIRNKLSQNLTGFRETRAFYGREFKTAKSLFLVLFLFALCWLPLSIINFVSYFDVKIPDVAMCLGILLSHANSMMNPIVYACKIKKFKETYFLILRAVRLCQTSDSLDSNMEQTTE

[7] = target: T4, Adenosine receptor A3 (Mus musculus); assay: Agonist activity at mouse A3AR adenosine receptor at 10 uM after 60 mins by [35S]GTPgammaS binding assay relative to (2S,3S,4R,5R)-5-(6-amino-9H-purin-9-yl)-N-ethyl-3,4-dihydroxytetrahydrofuran-2-carboxamide; type: functional
[8] = target: T5, Adenosine receptor A1 (Homo sapiens, UniProt P30542); assay: Agonist activity at human A1A adenosine receptor expressed in HEK cells assessed as inhibition of forskolin-stimulated cAMP production after 60 mins; type: functional, cell-based
T5 sequence (P30542 whole entry): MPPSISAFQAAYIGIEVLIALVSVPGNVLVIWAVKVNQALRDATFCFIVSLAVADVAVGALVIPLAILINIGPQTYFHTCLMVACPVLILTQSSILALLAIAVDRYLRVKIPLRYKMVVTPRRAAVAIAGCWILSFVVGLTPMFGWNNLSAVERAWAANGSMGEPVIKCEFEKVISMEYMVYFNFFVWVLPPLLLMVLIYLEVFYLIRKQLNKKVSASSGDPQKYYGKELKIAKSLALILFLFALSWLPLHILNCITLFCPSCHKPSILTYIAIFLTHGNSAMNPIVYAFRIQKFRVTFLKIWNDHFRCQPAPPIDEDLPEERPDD

[9] = organism: Mus musculus; assay: Selectivity index, ratio of Ki for mouse A3A adenosine receptor to Ki for mouse A1A adenosine receptor expressed in CHO cell membranes after 60 mins by scintillation proximity assay
[10] = target: T5, Adenosine receptor A1; assay: Agonist activity at human A1A adenosine receptor expressed in CHOKI cells assessed as induction of beta-arrestin2 recruitment after 60 mins; type: cell-based
[11] = test system: Mus musculus; assay: Induction of hypothermia in C57BL/6J mouse assessed as body temperature at 10 mg/kg, ip measured at 60 mins post dose (reference value: 36.3 +/- 0.8 degC); type: functional
[12] = test system: Mus musculus; assay: Induction of hypothermia in C57BL/6J mouse assessed as activity counts at 10 mg/kg, ip measured at 60 mins post dose (reference value: 15.5 +/- 5.5); type: functional
[13] = Fraction unbound in human plasma at 10 uM; type: ADME, cell-free
[14] = Fraction unbound in mouse plasma at 10 uM; type: ADME, cell-free
[15] = Fraction unbound in rat plasma at 10 uM; type: ADME, cell-free
[16] = target: T5, Adenosine receptor A1; assay: Agonist activity at human A1A adenosine receptor expressed in HEK cell membranes incubated for 60 mins by [35S]GTPgammaS binding assay; type: functional
[17] = target: Translocator protein (Homo sapiens, UniProt P30536); assay: Inhibition of TSPO (unknown origin) at 10 uM relative to control
Sequence of Translocator protein (P30536 whole entry): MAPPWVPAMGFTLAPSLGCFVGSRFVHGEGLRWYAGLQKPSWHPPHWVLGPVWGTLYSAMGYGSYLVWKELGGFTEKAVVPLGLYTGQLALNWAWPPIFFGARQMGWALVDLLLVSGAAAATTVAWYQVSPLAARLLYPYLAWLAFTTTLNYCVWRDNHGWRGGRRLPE

[18] = test system: Mus musculus; assay: Induction of hypothermia in C57BL/6J mouse assessed as body temperature at 1 mg/kg, ip measured at 60 mins post dose (reference value: 36.3 +/- 0.8 degC); type: functional
[19] = target: T5, Adenosine receptor A1; assay: Displacement of [3H]N6-R-phenylisopropyladenosine from human A1A adenosine receptor expressed in CHO cell membranes after 60 mins by scintillation proximity assay
[20] = target: T6, Adenosine receptor A1 (Mus musculus, UniProt Q60612); assay: Displacement of [3H]N6-R-phenylisopropyladenosine from mouse A1A adenosine receptor expressed in CHO cell membranes after 60 mins by scintillation proximity assay
T6 sequence (Q60612 whole entry): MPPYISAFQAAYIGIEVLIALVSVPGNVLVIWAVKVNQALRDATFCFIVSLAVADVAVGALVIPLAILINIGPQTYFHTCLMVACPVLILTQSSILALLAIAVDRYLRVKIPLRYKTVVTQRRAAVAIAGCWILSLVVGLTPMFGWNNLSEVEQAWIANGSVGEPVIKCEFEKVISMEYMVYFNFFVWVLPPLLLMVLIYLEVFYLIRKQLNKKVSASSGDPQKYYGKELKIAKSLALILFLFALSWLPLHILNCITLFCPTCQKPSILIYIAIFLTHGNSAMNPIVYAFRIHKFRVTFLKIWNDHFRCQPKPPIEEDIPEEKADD

[21] = target: Adenosine receptor A2a (Mus musculus) (UniProt Q60613); assay: Displacement of [3H]2-[p-(2-carboxyethyl)phenylethylamino]-5-N-ethylcarboxamidoadenosine from mouse A2A adenosine receptor expressed in HEK293 cell membranes at 10 uM after 60 mins by scintillation proximity assay relative to adenosine 5-N-ethyluronamide
Sequence of Adenosine receptor A2a (Mus musculus) (Q60613 whole entry): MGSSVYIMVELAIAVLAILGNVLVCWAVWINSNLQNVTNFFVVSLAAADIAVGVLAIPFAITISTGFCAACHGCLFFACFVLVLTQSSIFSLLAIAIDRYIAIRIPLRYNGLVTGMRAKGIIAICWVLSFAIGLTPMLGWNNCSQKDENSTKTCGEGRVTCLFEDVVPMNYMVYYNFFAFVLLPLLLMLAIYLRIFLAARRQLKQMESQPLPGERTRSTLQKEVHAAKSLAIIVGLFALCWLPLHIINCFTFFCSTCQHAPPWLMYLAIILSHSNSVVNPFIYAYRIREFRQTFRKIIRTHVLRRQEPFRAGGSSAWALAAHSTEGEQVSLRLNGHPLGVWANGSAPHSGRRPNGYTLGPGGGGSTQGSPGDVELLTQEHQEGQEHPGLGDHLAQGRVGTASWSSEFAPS

[22] = target: T2, Adenosine receptor A2a; assay: Displacement of [3H]2-[p-(2-carboxyethyl)phenylethylamino]-5-N-ethylcarboxamidoadenosine from human A2A adenosine receptor expressed in HEK293 cell membranes after 60 mins by scintillation proximity assay
[23] = target: T7, Adenosine receptor A3 (Homo sapiens, UniProt P0DMS8); assay: Displacement of [125I]N6-(4-amino-3-iodobenzyl)adenosine-5-N-methyluronamide from human A3A adenosine receptor expressed in CHO cell membranes after 60 mins by scintillation proximity assay
T7 sequence (P0DMS8 whole entry): T3 sequence (whole entry)

[24] = target: T8, Adenosine receptor A3 (Mus musculus, UniProt Q61618); assay: Displacement of [125I]N6-(4-amino-3-iodobenzyl)adenosine-5-N-methyluronamide from mouse A3A adenosine receptor expressed in CHO cell membranes after 60 mins by scintillation proximity assay
T8 sequence (Q61618 whole entry): T4 sequence (whole entry)

[25] = target: 5-hydroxytryptamine receptor 2B (Homo sapiens, UniProt P41595); assay: Inhibition of 5HT2B (unknown origin)
Sequence of 5-hydroxytryptamine receptor 2B (P41595 whole entry): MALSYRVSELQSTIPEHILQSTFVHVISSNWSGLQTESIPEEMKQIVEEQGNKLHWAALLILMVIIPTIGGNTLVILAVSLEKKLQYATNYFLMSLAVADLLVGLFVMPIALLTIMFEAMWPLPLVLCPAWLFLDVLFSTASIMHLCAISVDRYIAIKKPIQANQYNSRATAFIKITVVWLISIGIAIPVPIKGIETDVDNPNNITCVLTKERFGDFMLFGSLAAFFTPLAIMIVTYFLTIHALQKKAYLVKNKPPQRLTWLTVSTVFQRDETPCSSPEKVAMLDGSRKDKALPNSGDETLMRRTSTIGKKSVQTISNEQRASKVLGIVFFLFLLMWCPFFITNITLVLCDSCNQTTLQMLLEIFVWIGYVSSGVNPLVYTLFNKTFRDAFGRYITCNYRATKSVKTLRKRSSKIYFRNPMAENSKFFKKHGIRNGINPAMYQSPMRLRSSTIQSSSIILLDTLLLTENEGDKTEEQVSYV

[26] = target: Sodium-dependent noradrenaline transporter (Homo sapiens, UniProt P23975); assay: Inhibition of NET (unknown origin)
Sequence of Sodium-dependent noradrenaline transporter (P23975 whole entry): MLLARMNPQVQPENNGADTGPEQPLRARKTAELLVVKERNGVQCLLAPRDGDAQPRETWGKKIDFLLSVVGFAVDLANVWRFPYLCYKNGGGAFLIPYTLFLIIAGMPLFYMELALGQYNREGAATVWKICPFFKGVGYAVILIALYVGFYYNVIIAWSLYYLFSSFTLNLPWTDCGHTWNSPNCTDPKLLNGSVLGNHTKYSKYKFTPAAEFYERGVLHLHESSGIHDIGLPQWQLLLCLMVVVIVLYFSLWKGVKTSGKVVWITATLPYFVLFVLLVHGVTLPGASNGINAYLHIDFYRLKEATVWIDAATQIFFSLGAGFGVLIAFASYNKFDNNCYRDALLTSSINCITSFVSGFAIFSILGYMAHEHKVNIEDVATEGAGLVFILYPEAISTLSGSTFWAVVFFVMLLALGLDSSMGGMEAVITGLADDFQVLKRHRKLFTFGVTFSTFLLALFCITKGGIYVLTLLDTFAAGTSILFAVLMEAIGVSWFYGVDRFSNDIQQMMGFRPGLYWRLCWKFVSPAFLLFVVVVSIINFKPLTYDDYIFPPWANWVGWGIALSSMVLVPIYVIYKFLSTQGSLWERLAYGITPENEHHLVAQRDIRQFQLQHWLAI

[27] = target: T9, Adenosine receptor A1 (Mus musculus) (UniProt Q60612); assay: Agonist activity at mouse A1A adenosine receptor at 10 uM after 60 mins by [35S]GTPgammaS binding assay relative to (2S,3S,4R,5R)-5-(6-amino-9H-purin-9-yl)-N-ethyl-3,4-dihydroxytetrahydrofuran-2-carboxamide; type: functional
T9 sequence (whole entry): T6 sequence (Q60612 whole entry)

[28] = test system: Mus musculus; assay: Induction of hypothermia in C57BL/6J mouse assessed as body temperature at 3 mg/kg, ip measured at 60 mins post dose (reference value: 36.3 +/- 0.8 degC); type: functional
[29] = test system: Mus musculus; assay: Induction of hypothermia in C57BL/6J mouse assessed as activity counts at 3 mg/kg, ip measured at 60 mins post dose (reference value: 15.5 +/- 5.5); type: functional
[30] = test system: Mus musculus; assay: Induction of hypothermia in A1AR knock out C57BL/6J mouse assessed as effect on body temperature at 3 mg/kg, ip measured at 60 mins post dose; type: functional, organism-based
[31] = test system: Mus musculus; assay: Induction of hypothermia in A1AR/A3AR knock out C57BL/6J mouse assessed as effect on body temperature at 3 mg/kg, ip measured at 60 mins post dose; type: functional, organism-based
[32] = test system: Mus musculus; assay: Induction of hypothermia in A3AR knock out C57BL/6J mouse assessed as effect on body temperature at 3 mg/kg, ip measured at 60 mins post dose; type: functional, organism-based

O[C@@H]1[C@H](O)[C@@H]2C[C@@H]2[C@H]1n1cnc2c(NC(C3CCCC3)C3CCCC3)nc(Cl)nc21
Ki [1]: 2920 nM
Ki [2]: 2010 nM
Ki [3]: 5090 nM

NC(=O)c1ncn([C@H]2[C@H](O)[C@H](O)[C@]3(CO)C[C@H]23)n1
inhibition [4]: 11%
inhibition [5]: 41%
inhibition [6]: 47%
Ki [2]: 2090 nM
Emax [7]: 31%
IC50 [8]: 87 nM
Ratio Ki [9]: 400
EC50 [10]: 2460 nM
T [11]: 35.7 °C
Activity [12]: 19.1
Fu [13]: > 80%
Fu [14]: > 80%
Fu [15]: > 80%
EC50 [16]: 758 nM

CCSC[C@H]1O[C@@H](n2cnc3c(NC(C4CCC4)C4CCC4)ncnc32)[C@H](O)[C@@H]1O
inhibition [4]: 30%
Ki [2]: 642 nM
inhibition [17]: 90%

OC[C@H]1O[C@@H](n2cnc3c(NC4CCCC4)ncnc32)[C@H](O)[C@@H]1O [N6-CYCLOPENTYLADENOSINE]
T [18]: 32.4 °C

OC[C@@]12C[C@@H]1[C@@H](n1cnc3c(N[C@H]4C[C@H]5CC[C@@H]4C5)nc(Cl)nc31)[C@H](O)[C@@H]2O
Ki [19]: 23.6 nM
Ki [20]: 1.05 nM
inhibition [21]: 15%
Ki [22]: 4260 nM
Ki [23]: 288 nM
Ki [24]: 574 nM
Ki [25]: 472 nM
Ki [26]: 5740 nM
Emax [27]: 104%
Emax [7]: 62%
Ratio Ki [9]: 547
T [28]: 33.4 °C
Activity [29]: 10
Activity [30]: inactive
Fu [13]: 9.75%
Fu [14]: 7.68%
Fu [15]: 6.59%
Activity [31]: inactive
Activity [32]: inactive

Reference: ChEMBL document CHEMBL4368904 (J Med Chem, 2019)
